Where “and” joins values, the source holds several entries; their conditions need not be identical. Equal values may be shown once. Read-outs that look alike come from different tables or passages of the source.
What was measured:
[1] = biological target: T1, Jack Bean α-mannosidase (JBα-man) (Canavalia ensiformis, UniProt C0HJB3); conditions: cited from earlier work; for rp/n: cyclopeptoid-based clusters
T1 construct: two LH heterodimers, each constituted by two distinct chains, L and H; purchased Sigma Aldrich
T1 sequence (C0HJB3 1-562 limits assumed): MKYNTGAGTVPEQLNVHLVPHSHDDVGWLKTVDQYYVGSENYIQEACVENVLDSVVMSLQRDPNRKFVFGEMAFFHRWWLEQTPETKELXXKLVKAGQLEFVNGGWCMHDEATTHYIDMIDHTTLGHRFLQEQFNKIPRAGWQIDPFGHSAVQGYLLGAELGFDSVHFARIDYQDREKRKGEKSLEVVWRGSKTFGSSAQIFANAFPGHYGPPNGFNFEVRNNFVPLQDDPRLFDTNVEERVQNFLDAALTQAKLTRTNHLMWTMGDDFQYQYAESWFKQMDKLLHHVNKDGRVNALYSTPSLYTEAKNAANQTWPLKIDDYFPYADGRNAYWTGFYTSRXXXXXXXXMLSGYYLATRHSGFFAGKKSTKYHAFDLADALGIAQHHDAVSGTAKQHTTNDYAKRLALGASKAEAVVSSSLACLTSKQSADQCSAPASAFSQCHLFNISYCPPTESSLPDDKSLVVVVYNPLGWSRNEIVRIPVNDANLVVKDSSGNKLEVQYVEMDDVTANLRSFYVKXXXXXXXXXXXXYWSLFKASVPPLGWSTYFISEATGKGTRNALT
T1 sequence (C0HJB3 563-981 limits assumed): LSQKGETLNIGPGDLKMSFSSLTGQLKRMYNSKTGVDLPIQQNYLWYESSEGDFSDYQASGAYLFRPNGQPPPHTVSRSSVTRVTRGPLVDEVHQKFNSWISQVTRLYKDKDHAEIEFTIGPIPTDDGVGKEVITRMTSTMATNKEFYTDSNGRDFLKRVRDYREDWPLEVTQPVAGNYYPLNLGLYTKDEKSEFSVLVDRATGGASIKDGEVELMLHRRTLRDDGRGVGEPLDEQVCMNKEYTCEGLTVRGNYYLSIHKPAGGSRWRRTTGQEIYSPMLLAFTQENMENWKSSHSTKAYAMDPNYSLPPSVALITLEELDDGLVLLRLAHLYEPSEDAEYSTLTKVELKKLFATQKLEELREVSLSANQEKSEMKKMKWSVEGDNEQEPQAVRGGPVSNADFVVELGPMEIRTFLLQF

[2] = biological target: T1, Jack Bean α-mannosidase (JBα-man); experiment: Inhibition assay against Jack Bean α-mannosidase (hydrolysis of p-nitrophenyl-α-D-mannopyranoside); type: biochemical
Experimental: p-nitrophenyl-α-D-mannopyranoside and α-mannosidase (EC 3.2.1.24, from Jack Bean, Km = 2.0 mM pH 5.5) were purchased from Sigma Aldrich(St. Louis, MO, USA).
General procedure for Inhibition assay with basic quench: Inhibitory potencies were determined spectrophotometrically (Versamax 96-well plate spectrophotometer, Molecular Devices Corporation, Sunnyvale, CA, USA) measuring the residual hydrolytic activities of the mannosidase against p-nitrophenyl-α-D-mannopyranoside in the presence and absence of the inhibitor. All kinetics were performed at 25 °C and started by enzyme addition (0.015 U/mL) in a 100 µL assay medium (acetate buffer, 0.2 M, pH = 5) containing substrate (varying concentration from Km/8 to 2Km value) in presence or absence of various concentrations of inhibitor. After 40–50 min incubation, the reaction was quenched by addition of 1M Na2CO3 (100 µL). The absorbance of the resulting solution was determined at 405 nm. Ki values were determined in duplicate or triplicate, using the Dixon and Lineweaver–Burk graphical methods with Microsoft Excel 97-03, or using non-linear regression with GraphPad Prism 7 Software. As the inhibitors are only partially soluble in water, they were dissolved in DMSO for concentrated mother solutions and DMSO/buffer for diluted solutions with a final DMSO concentration under 4% in all wells. Previously, the stability of the enzymes in presence of various concentrations of DMSO was controlled and the enzyme activity was unaffected.
General procedure for inhibition assay measured continuously: The release of p-nitrophenol was measured continuously at 385 nm to determine initial velocities. […] Under these conditions, the p-nitrophenolate released led to optical densities linear with both reaction time and concentration of the enzyme. Ki values were determined in duplicate or quadruplate, using the Dixon graphical method. As the inhibitors are only partially soluble in water, they were dissolved in DMSO for concentrated mother solutions and DMSO/buffer for diluted solutions with a final DMSO concentration under 5% in all vials. […]

[3] = calix[4]arene cluster and its monovalent reference, read-out: Ki

In the case of `O=C1CN(Cc2cn(CCCCCCCCCN3C[C@H](O)[C@@H](O)[C@H](O)[C@H]3CO)nn2)C(=O)CN(Cc2cn(CCCCCCCCCN3C[C@H](O)[C@@H](O)[C@H](O)[C@H]3CO)nn2)C(=O)CN(Cc2cn(CCCCCCCCCN3C[C@H](O)[C@@H](O)[C@H](O)[C@H]3CO)nn2)C(=O)CN(Cc2cn(CCCCCCCCCN3C[C@H](O)[C@@H](O)[C@H](O)[C@H]3CO)nn2)C(=O)CN(Cc2cn(CCCCCCCCCN3C[C@H](O)[C@@H](O)[C@H](O)[C@H]3CO)nn2)C(=O)CN1Cc1cn(CCCCCCCCCN2C[C@H](O)[C@@H](O)[C@H](O)[C@H]2CO)nn1` [Compound 1a], the rp/n [1] is given as 3 and ~ 3.

In the case of `O=C1CN(Cc2cn(CCCCCCCCCN3C[C@H](O)[C@@H](O)[C@H](O)[C@H]3CO)nn2)C(=O)CN(Cc2cn(CCCCCCCCCN3C[C@H](O)[C@@H](O)[C@H](O)[C@H]3CO)nn2)C(=O)CN(Cc2cn(CCCCCCCCCN3C[C@H](O)[C@@H](O)[C@H](O)[C@H]3CO)nn2)C(=O)CN(Cc2cn(CCCCCCCCCN3C[C@H](O)[C@@H](O)[C@H](O)[C@H]3CO)nn2)C(=O)CN(Cc2cn(CCCCCCCCCN3C[C@H](O)[C@@H](O)[C@H](O)[C@H]3CO)nn2)C(=O)CN(Cc2cn(CCCCCCCCCN3C[C@H](O)[C@@H](O)[C@H](O)[C@H]3CO)nn2)C(=O)CN(Cc2cn(CCCCCCCCCN3C[C@H](O)[C@@H](O)[C@H](O)[C@H]3CO)nn2)C(=O)CN1Cc1cn(CCCCCCCCCN2C[C@H](O)[C@@H](O)[C@H](O)[C@H]2CO)nn1` [Compound 1b], the rp/n [1] is given as 3 and ~ 3.

For `CC(C)(C)c1cc2c(OCc3cn(CCCN4C[C@H](O)[C@@H](O)[C@H](O)[C@H]4CO)nn3)c(c1)Cc1cc(C(C)(C)C)cc(c1OCc1cn(CCCN3C[C@H](O)[C@@H](O)[C@H](O)[C@H]3CO)nn1)Cc1cc(C(C)(C)C)cc(c1OCc1cn(CCCN3C[C@H](O)[C@@H](O)[C@H](O)[C@H]3CO)nn1)Cc1cc(C(C)(C)C)cc(c1OCc1cn(CCCN3C[C@H](O)[C@@H](O)[C@H](O)[C@H]3CO)nn1)C2` [Compound 2], the Ki [1, 3] is listed as 1.5 µM and the “rp/n (affinity enhancement per iminosugar)” value ([1]; calix[4]arene cluster) is listed as 70 and ~ 70.

For `CCCc1cn(CCCCCCN2C[C@H](O)[C@@H](O)[C@H](O)[C@H]2CO)nn1` [Compound 3], the Ki ([1]; monovalent reference, C6 chain, read-out: Ki) is listed as 322 µM.

For `CCCc1cn(CCCCCCCCCN2C[C@H](O)[C@@H](O)[C@H](O)[C@H]2CO)nn1` [Compound 4], the Ki ([1]; monovalent reference, C9 chain, read-out: Ki) is given as 188 µM.

In the case of `OCc1cn(CCCN2C[C@H](O)[C@@H](O)[C@H](O)[C@H]2CO)nn1` [Compound 5], the Ki [1, 3] is listed as 400 µM.

In the case of `CC(C)(C)c1cc2c3c(c1)Cc1cc(C(C)(C)C)cc(c1OCc1cn(CCCCCCN4C[C@H](O)[C@@H](O)[C@H](O)[C@H]4CO)nn1)Cc1cc(C(C)(C)C)cc(c1OCc1cn(CCCCCCN4C[C@H](O)[C@@H](O)[C@H](O)[C@H]4CO)nn1)Cc1cc(C(C)(C)C)cc(c1OCc1cn(CCCCCCN4C[C@H](O)[C@@H](O)[C@H](O)[C@H]4CO)nn1)Cc1cc(C(C)(C)C)cc(c1OCc1ccc(cc1)CO3)Cc1cc(C(C)(C)C)cc(c1OCc1cn(CCCCCCN3C[C@H](O)[C@@H](O)[C@H](O)[C@H]3CO)nn1)Cc1cc(C(C)(C)C)cc(c1OCc1cn(CCCCCCN3C[C@H](O)[C@@H](O)[C@H](O)[C@H]3CO)nn1)Cc1cc(C(C)(C)C)cc(c1OCc1cn(CCCCCCN3C[C@H](O)[C@@H](O)[C@H](O)[C@H]3CO)nn1)C2` [Compound 7a], the inhibition mode [2] is reported as “competitive inhibitors”, the Ki ([2]; means ± SD, triplicate) is reported as 7.7 ± 0.7 µM and the “rp/n (relative inhibition potency per DNJ unit)” value ([2]; rp/number of DNJ units) is reported as 7.

In the case of `OC[C@@H]1[C@@H](O)[C@H](O)[C@H](O)c2nccn21` [mannoimidazole], the Ki ([1]; monovalent inhitope, read-out: Ki (monovalent)) is listed as 0.11 µM.

— paper PMC7694328, “Synthesis and Glycosidase Inhibition Properties of Calix[8]arene-Based Iminosugar Click Clusters” (Pharmaceuticals, 2020)
